Experimental findings from ChEMBL document CHEMBL3352774 (J Nat Prod, 2014) are described below.

The term Ki denotes the dissociation constant of the complex between target and ligand, obtained from inhibition or displacement. High values mean lower affinity, low ones higher affinity.

Each structure is given as a SMILES string.

In one series the target is T1, Xanthine dehydrogenase (Rhodobacter capsulatus, UniProt O54050).
T1 sequence (O54050 whole entry): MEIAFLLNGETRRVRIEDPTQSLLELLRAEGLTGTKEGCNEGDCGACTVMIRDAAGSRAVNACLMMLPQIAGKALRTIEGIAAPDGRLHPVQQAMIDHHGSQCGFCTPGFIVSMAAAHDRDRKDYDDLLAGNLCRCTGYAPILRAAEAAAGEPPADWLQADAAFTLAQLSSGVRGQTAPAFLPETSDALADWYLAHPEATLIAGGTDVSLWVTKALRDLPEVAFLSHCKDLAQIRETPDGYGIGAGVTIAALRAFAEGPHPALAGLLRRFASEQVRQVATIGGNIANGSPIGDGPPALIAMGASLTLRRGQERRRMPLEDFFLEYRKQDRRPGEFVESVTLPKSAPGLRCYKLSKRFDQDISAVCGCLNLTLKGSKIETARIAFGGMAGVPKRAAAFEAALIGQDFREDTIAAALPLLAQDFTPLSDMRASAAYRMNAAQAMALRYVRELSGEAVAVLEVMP
The series is described as follows: Inhibition of Rhodobacter capsulatus xanthine dehydrogenase.

Series [1] has as its target Xanthine dehydrogenase/oxidase (Bos taurus, UniProt P80457). The series is described as follows: Inhibition of bovine milk xanthine oxidoreductase by spectrophotometry.
For series [2], the target named is T2, Xanthine dehydrogenase/oxidase (Homo sapiens, UniProt P47989). The series is described as follows: Inhibition of human xanthine oxidase.
Series [3] addresses T2, Xanthine dehydrogenase/oxidase. The series is described as follows: Inhibition of oxidized form of human xanthine oxidase.

Xanthine dehydrogenase/oxidase (Bos taurus, UniProt P80457), sequence (P80457 whole entry): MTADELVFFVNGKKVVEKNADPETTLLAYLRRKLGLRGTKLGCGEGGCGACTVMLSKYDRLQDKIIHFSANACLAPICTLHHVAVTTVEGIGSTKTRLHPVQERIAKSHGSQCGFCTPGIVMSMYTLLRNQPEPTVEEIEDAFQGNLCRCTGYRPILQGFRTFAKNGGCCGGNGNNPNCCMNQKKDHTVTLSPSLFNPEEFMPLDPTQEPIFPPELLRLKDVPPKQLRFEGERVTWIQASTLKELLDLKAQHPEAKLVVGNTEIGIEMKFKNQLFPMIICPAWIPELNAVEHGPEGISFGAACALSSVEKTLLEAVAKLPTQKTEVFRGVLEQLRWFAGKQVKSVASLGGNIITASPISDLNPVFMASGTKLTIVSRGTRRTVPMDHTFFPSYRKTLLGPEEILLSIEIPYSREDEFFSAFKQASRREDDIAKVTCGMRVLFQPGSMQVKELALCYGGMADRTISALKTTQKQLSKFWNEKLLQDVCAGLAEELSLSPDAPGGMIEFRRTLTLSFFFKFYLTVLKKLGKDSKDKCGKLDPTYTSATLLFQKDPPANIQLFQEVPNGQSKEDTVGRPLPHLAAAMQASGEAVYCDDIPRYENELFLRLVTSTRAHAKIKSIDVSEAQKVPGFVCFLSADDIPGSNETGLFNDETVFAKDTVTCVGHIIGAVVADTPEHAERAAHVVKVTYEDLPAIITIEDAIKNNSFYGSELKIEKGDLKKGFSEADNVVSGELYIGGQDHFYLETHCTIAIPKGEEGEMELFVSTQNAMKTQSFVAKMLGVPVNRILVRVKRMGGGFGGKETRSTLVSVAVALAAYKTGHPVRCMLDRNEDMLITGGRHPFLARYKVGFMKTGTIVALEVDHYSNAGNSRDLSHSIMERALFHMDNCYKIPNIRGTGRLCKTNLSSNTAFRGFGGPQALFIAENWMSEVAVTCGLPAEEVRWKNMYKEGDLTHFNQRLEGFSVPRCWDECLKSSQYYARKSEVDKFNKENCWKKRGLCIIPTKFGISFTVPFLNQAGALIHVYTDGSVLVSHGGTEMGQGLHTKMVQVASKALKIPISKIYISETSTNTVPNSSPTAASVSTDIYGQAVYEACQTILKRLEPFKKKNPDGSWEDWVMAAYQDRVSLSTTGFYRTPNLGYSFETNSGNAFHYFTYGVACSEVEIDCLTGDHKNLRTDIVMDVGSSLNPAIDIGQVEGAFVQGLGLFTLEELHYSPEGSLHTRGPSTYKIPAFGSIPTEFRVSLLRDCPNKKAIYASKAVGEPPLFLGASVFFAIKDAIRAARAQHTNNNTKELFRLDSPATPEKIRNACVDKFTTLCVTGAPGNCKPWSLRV
T2 sequence (P47989 whole entry): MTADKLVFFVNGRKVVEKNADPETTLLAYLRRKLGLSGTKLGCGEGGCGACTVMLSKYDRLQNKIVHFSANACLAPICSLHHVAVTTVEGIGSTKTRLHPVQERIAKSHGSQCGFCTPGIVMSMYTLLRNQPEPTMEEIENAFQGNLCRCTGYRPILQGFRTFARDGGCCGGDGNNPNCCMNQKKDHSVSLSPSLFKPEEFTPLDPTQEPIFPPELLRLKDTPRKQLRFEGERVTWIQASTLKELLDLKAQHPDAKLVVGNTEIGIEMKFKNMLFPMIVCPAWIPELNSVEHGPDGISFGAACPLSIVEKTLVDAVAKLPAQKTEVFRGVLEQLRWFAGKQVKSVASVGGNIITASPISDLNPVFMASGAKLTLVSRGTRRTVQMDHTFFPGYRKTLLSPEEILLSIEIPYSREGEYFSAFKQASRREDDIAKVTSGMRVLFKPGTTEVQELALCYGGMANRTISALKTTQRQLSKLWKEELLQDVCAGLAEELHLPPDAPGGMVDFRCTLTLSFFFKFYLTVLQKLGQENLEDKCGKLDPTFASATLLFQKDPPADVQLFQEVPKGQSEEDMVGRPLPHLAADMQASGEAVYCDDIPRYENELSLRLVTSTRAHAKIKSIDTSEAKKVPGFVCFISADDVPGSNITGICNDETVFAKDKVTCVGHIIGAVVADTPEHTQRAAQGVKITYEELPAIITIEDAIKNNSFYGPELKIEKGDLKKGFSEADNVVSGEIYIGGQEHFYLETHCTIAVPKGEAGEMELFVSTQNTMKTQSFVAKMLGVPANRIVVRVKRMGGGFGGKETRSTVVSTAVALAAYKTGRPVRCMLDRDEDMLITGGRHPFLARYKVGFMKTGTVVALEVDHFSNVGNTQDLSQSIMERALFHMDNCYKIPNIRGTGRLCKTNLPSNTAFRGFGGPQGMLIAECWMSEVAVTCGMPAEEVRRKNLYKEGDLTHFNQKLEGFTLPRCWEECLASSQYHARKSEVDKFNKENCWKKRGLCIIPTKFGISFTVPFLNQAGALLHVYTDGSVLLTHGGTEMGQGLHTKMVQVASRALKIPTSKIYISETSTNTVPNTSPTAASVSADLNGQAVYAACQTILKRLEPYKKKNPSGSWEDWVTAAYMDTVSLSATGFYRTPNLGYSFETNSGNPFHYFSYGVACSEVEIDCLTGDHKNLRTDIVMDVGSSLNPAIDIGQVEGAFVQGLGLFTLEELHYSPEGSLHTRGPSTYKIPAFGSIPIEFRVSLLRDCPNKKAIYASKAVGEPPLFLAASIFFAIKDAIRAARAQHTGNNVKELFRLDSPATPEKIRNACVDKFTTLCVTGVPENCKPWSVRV

In the case of `Nc1nc2ncc(C=O)nc2c(=O)[nH]1`, the Ki on Xanthine dehydrogenase came out at 104 nM; in series [1], 1.78 nM.
Turning to `O=c1[nH]c(=O)c2c[nH]nc2[nH]1` [OXYPURINOL], the Ki in series [2] was 35 nM; in series [3], 1000 nM.
With `O=c1c(O)c(-c2ccc(O)c(O)c2)oc2cc(O)cc(O)c12` [QUERCETIN], the “inhibition (INH)” value in series [1] (cattle) is listed as “Active”.
